Assay results taken from publication PMC10987949, “Inhibition of HIV-1 release by ADAM metalloproteinase inhibitors” (Frontiers in Microbiology, 2024).

What was measured:
[1] = test system: CD4 T cells; assay: RNA sequencing of CD4 T cells, pathway gene expression; format: cell-based, human; settings: compound alone
Description: CD4+ T cells were enriched from PBMC using EasySep™ human CD4 T cell enrichment kit ([…] Technologies Inc., MA 02142). To prepare samples for RNA sequencing, 5-10×10^6 PBMC or CD4+ T cells from either infected or uninfected samples were lysed for RNA isolation using RNeasy mini kit from QIAGEN. Samples of 2–10 μg RNA with concentration > 25 ng/μl and OD260/280 > 2.0 were used for cDNA library preparation of 250–300 base pair fragments in length, and high throughput sequencing using Illumina Miseq platform by Novogene (Novogene Corp Inc., CA 91914). A total of ~20×10^6 reads were recorded for each sample (Table 3). The mapping and assembly of raw sequencing reads, statistical and preliminary bioinformatic analyses were performed by Novogene. Subsequent gene expression analyses were performed based on expected Fragments Per Kilobase of transcript sequence per Millions base pairs sequenced (FPKM) using sequences of 20 reads or higher. All differential gene expression analyses were done between infected samples in the presence or absence of treatment and their donor matched uninfected controls. […] The RNAseq data is available in GEO database under accession number GSE218175.

[2] = test system: HIV-1; assay: Ex vivo HIV-1 release from CD4 T cells of HIV-1 infected individuals; format: cell-based; settings: 50 μM; for effect on viral release (virion-associated HIV RNA): CD4 T cells from six HIV-1 infected individuals, day 2 and 4
Description: PBMCs were collected from the study subjects in accordance with a clinical protocol approved by the Institutional Review Board of the National Institute of Allergy and Infectious Diseases, National Institutes of Health under protocol #02-I-0202. CD4^+ T cells were isolated from the PBMCs using a human CD4 T cell separation system (StemCell Technologies, Catalog 19052) and were cultured with medium alone or with plate-bound anti-CD3 and soluble anti-CD28 antibody in the absence or presence of 50 μM of indicated compounds for 48 h. The copy number of cell-free viron-associated HIV RNA in the culture supernatants was quantified using the Cobas Ampliprep/Cobas Taqman HIV-1 Test, Version 2.0 (Roche Diagnostics) with droplet digital PCR (ddPCR, BIO-RAD) on day 2 and 4 of stimulation.

[3] = test system: HIV-1LAI; assay: HIV-1LAI infection of CD8-depleted PBMC; format: cell-based; settings: 100 μM
From the text: The use of healthy human peripheral blood mononuclear cells (PBMC) is approved by the Department of Transfusion Medicine at the Clinical Center of National Institutes of Health. The use of PBMC from HIV-1 infected individuals for the study was approved under protocol #02-I-0202 by the Institutional Review Board (IRB) of National Institutes of Health with written informed consent from all donors. Peripheral blood mononuclear cells (PBMCs) from anonymous healthy donors were isolated by Ficoll-Paque gradient, and cultured in RPMI 1640 supplemented with 10% FBS, 1%Penicillin/streptomycin, 1% HEPES buffer and 20 U/mL IL-2 (culture media); and stimulated with 0.2 μg/mL anti-CD3 antibody (okt3) for 2 days. CD8^+ T cells were depleted prior to infection using the Stemcell CD8 positive selection kit according to manufacturer’s instructions. […] The infections were proceeded with or without inhibitors for 6 days or otherwise specified number of days and then analyzed by FACS staining using fluorescent labeled CD4-BV510, CD62L-APC and CD3-PEC7 antibodies (BD Biosciences). […] Replication competent HIV-1 viruses were obtained from the NIH AIDS Reagent Program^4, and expanded by infecting activated CD8-depleted PBMCs, and TCID50 was determined by p24 ELISA.

[4] = test system: TNFα release; assay: TNFα release ELISA, stimulated CD4 T cells; format: cell-based, human; settings: PHA or anti-CD3 stimulated CD4 T cells
Description: PBMC from de-identified healthy donors were obtained with informed consent from the Department of Transfusion Medicine, National Institutes of Health under Biological reagent Registry RD-14-IX-12 approved by NIH biological safety board. CD8-depleted PBMCs, either stimulated or non-stimulated with 10 μg/mL phytohaemagglutinin (PHA) or anti-CD3 antibody (with or without conjugated beads), were plated at 2×10^6 cells/ml in 48 well plates in RPMI 1640 + 10%FBS (R10) to a final volume of 1 mL in each well. IL-2 was added at a final concentration of 20 U/mL. CD3 antibody okt3 was used at ~0.2 μg/mL final concentration. Compounds were prepared in appropriate solvents according to the manufacturer’s instructions, diluted to working concentrations using RPMI 1640 + 10%FBS (R10), and added to the cell cultures for 6–24 h for CD62L shedding, and 48 h for TNF-α release. Supernatants were collected and assessed using either the CD62L or TNF-α Duo Set ELISA kit according to manufacturer’s instructions (R&D Systems, Inc.). The viability of cells treated with compounds was assessed by acridine orange / propidiom iodide (AO/PI Logosbio catalog F23001) staining using Luna-FL cell counter following the manufacture’s instruction.^2

[5] = biological target: T1, recombinant HIV-1 protease (Human immunodeficiency virus type 1 group M subtype B, UniProt P04585); assay: HIV-1 protease fluorogenic substrate cleavage; format: biochemical; settings: 100nM saquinavir or nelfinavir; MMP inhibitors up to 10uM
T1 construct: recombinant HIV-1 protease; purchased Sigma-Aldrich SRP2151
Description: HIV-1 protease enzymatic activity was assayed in black 96-well plates at room temperature using a Synergy_h1 fluorescent plate reader with 340 nm excitation and 490 nm emission wavelengths (BioTek). Each enzymatic reaction consisted of a mixture of 100 ng of recombinant HIV-1 protease (Sigma-Aldrich catalog SRP2151), 5 μM concentration of a fluorogenic substrate Arg-Glu(EDANS)-[…]DABCYL)-Arg (Sigma-aldrich catalog H6660), and various concentrations of inhibitor compounds in 100 μL of assay buffer (0.15 M sodium chloride, 1.0 mM EDTA, 1.0 mM DTT, 0.1 M sodium acetate, pH 5.0). The fluorescence of the cleavage reaction was continuously read at every 30 s for a total of 40 min.

SMILES	transcription of type I interferon pathway genes ([1]; uninfected CD4 T cells)	expressions of cell cycle genes ([1]; without HIV-1 infection)	effect on viral release (virion-associated HIV RNA) [2]	reductions in released virion-associated RNA ([2]; day 2 and 4 post stimulation)	effect on X4 tropic HIV-1LAI infection [3]	effect on TNFα release [4]	effect on HIV protease cleavage of fluorogenic substrate [5]
CNC(=O)[C@H](Cc1ccccc1)NC(=O)[C@H](CC(C)C)[C@H](CSc1cccs1)C(=O)NO [BB-94, Batimastat]	does not suppress the transcription of type I interferon pathway genes	decreased slightly the expressions of cell cycle genes	inhibited the viral release from all individuals	2–50 fold	inhibited the X4 tropic HIV-1LAI infections	inhibited	none of the MMP inhibitors, including BB-94, prinomastat, GM6001 and DMDP, inhibited the activity of HIV protease
CC1(C)SCCN(S(=O)(=O)c2ccc(Oc3ccncc3)cc2)[C@H]1C(=O)NO [prinomastat]			inhibited viral release in a portion of the samples		inhibited the X4 tropic HIV-1LAI infections		none of the MMP inhibitors, including BB-94, prinomastat, GM6001 and DMDP, inhibited the activity of HIV protease
